Results from US20110190125A1, “2-(BENZYLSULFONYL)OXAZOLE DERIVATIVES, CHIRAL 2-(BENZYLSULFINYL)OXAZOLE DERIVATIVES” (BAYER CROPSCIENCE AG, priority 2008, published 2011).

Key:
Type in all cases: in vivo
Lolium multiflorum [1] = assay: Post-emergence herbicidal effect (greenhouse pot test); conditions: post-emergence method, application rate of 0.32 kg and less of active substance per hectare, rated visually after about 3 weeks
Description: (§1) Seeds of monocotyledonous and dicotyledonous weed and crop plants are placed in sandy loam in wood-fiber pots, covered with soil and cultivated in a greenhouse under good growth conditions. 2 to 3 weeks after sowing, the test plants are treated at the one-leaf stage. The compounds according to the invention, formulated in the form of wettable powders (WP), are then sprayed as aqueous suspension at a water application rate of 600 I/ha (converted) with the addition of 0.2% of wetting agent onto the green parts of the plants. After the test plants have been kept in the greenhouse under optimum growth conditions for about 3 weeks, the activity of the preparations is rated visually in comparison to untreated controls (herbicidal activity in percent (%): 100% activity=the plants have died, 0% activity=like control plants).

Echinochloa crus galli [2] = assay: as above; conditions: post-emergence method, application rate of 0.32 kg and less of active substance per hectare, rated visually after about 3 weeks
Description: as §1

Veronica persica = assay: Pre-emergence herbicidal effect (greenhouse pot test); conditions: pre-emergence method, application rate of 0.32 kg and less of active substance per hectare, scored visually after about 3 weeks
Text: (§2) Seeds of monocotyledonous or dicotyledonous weed plants or crop plants are placed in sandy loam in wood-fiber pots and covered with soil. The compounds according to the invention, formulated in the form of wettable powders (WP), are then applied as aqueous suspension at a water application rate of 600 I/ha (converted) with the addition of 0.2% of wetting agent to the surface of the covering soil.
(§3) After the treatment, the pots are placed in a greenhouse and kept under good growth conditions for the test plants. After about 3 weeks, the effect of the preparations is scored visually in comparison with untreated controls (herbicidal effect in percent (%): 100% activity=the plants have died, 0% activity=like control plants).

Lolium multiflorum [3] = assay: as above; conditions: pre-emergence method, application rate of 0.32 kg and less of active substance per hectare, scored visually after about 3 weeks
Text: as §2, §3

Echinochloa crus galli [4] = assay: as above; conditions: pre-emergence method, application rate of 0.32 kg and less of active substance per hectare, scored visually after about 3 weeks
Text: as §2, §3

Alopecurus myosuroides = assay: as above; conditions: pre-emergence method, application rate of 0.32 kg and less of active substance per hectare, scored visually after about 3 weeks
Text: as §2, §3

[O-][S+](Cc1c(Cl)cccc1Cl)c1ncco1 (racemic) [compound 44, 2-[(2,6-dichlorobenzyl)sulfinyl]-1,3-oxazole]
very good herbicidal activity: herbicidal activity against Lolium multiflorum (Lolium multiflorum [1]) | herbicidal activity against Echinochloa crus galli (Echinochloa crus galli [2]) | herbicidal activity against Veronica persica (Veronica persica) | herbicidal activity against Lolium multiflorum (Lolium multiflorum [3]) | herbicidal activity against Echinochloa crus galli (Echinochloa crus galli [4]) | herbicidal activity against Alopecurus myosuroides (Alopecurus myosuroides)

[O-][S@@+](Cc1c(Cl)cccc1Cl)c1ncco1 [compound 2517]
very good herbicidal activity: herbicidal activity against Lolium multiflorum (Lolium multiflorum [1]) | herbicidal activity against Echinochloa crus galli (Echinochloa crus galli [2]) | herbicidal activity against Veronica persica (Veronica persica) | herbicidal activity against Lolium multiflorum (Lolium multiflorum [3]) | herbicidal activity against Echinochloa crus galli (Echinochloa crus galli [4]) | herbicidal activity against Alopecurus myosuroides (Alopecurus myosuroides)

[O-][S+](Cc1c(F)cccc1F)c1ncco1 (stereo not drawn) [compound No. 11, 2-[(2,6-Difluorobenzyl)sulfinyl]-1,3-oxazole]
very good herbicidal activity: herbicidal activity against Veronica persica (Veronica persica) | herbicidal activity against Lolium multiflorum (Lolium multiflorum [3]) | herbicidal activity against Echinochloa crus galli (Echinochloa crus galli [4]) | herbicidal activity against Alopecurus myosuroides (Alopecurus myosuroides)

Cc1ccc(F)c(C[S+]([O-])c2ncco2)c1F (stereo not drawn) [compound No. 14, 2-[(2,6-Difluoro-3-methylbenzyl)sulfinyl]-1,3-oxazole]
very good herbicidal activity: herbicidal activity against Veronica persica (Veronica persica) | herbicidal activity against Lolium multiflorum (Lolium multiflorum [3]) | herbicidal activity against Echinochloa crus galli (Echinochloa crus galli [4]) | herbicidal activity against Alopecurus myosuroides (Alopecurus myosuroides)

[O-][S+](Cc1c(Cl)ccc(Cl)c1Cl)c1ncco1 (stereo not drawn) [compound No. 65, 2-[(2,3,6-Trichlorobenzyl)sulfinyl]-1,3-oxazole]
very good herbicidal activity: herbicidal activity against Lolium multiflorum (Lolium multiflorum [1]) | herbicidal activity against Echinochloa crus galli (Echinochloa crus galli [2]) | herbicidal activity against Veronica persica (Veronica persica) | herbicidal activity against Lolium multiflorum (Lolium multiflorum [3]) | herbicidal activity against Echinochloa crus galli (Echinochloa crus galli [4]) | herbicidal activity against Alopecurus myosuroides (Alopecurus myosuroides)

O=S(=O)(Cc1c(Cl)ccc(Cl)c1Cl)c1ncco1 [compound No. 66, 2-[(2,3,6-Trichlorobenzyl)sulfonyl]-1,3-oxazole]
very good herbicidal activity: herbicidal activity against Veronica persica (Veronica persica) | herbicidal activity against Lolium multiflorum (Lolium multiflorum [3]) | herbicidal activity against Echinochloa crus galli (Echinochloa crus galli [4]) | herbicidal activity against Alopecurus myosuroides (Alopecurus myosuroides)

Cc1ccc(C)c(C[S+]([O-])c2ncco2)c1 (stereo not drawn) [compound No. 131, 2-[(2,5-Dimethylbenzyl)sulfinyl]-1,3-oxazole]
very good herbicidal activity: herbicidal activity against Lolium multiflorum (Lolium multiflorum [1]) | herbicidal activity against Echinochloa crus galli (Echinochloa crus galli [2]) | herbicidal activity against Veronica persica (Veronica persica) | herbicidal activity against Lolium multiflorum (Lolium multiflorum [3]) | herbicidal activity against Echinochloa crus galli (Echinochloa crus galli [4]) | herbicidal activity against Alopecurus myosuroides (Alopecurus myosuroides)

[O-][S+](Cc1c(F)ccc(F)c1Cl)c1ncco1 (stereo not drawn) [compound No. 203, 2-[(2-Chloro-3,6-difluorobenzyl)sulfinyl]-1,3-oxazole]
very good herbicidal activity: herbicidal activity against Lolium multiflorum (Lolium multiflorum [1]) | herbicidal activity against Echinochloa crus galli (Echinochloa crus galli [2]) | herbicidal activity against Veronica persica (Veronica persica) | herbicidal activity against Lolium multiflorum (Lolium multiflorum [3]) | herbicidal activity against Echinochloa crus galli (Echinochloa crus galli [4]) | herbicidal activity against Alopecurus myosuroides (Alopecurus myosuroides)
